# Measured values published in patent US11013745B2, “Triazolopyrimidine, triazolopyridine compounds, and the composition thereof for treating PRC2-mediated diseases” (SHANGHAI INSTITUTE OF MATERIA MEDICA, CHINESE ACADEMY OF …, priority 2017, dated 2021).
# Read-outs that look alike come from different tables or passages of the source.
# How the values were obtained:
# Pfeiffer cells = test: Pfeiffer cell growth inhibition in a long term (11 days), CellTiter-Glo; assay type: cell-based, Human; conditions: Homo sapiens, 264 h, read-out: Experiment on Pfeiffer cell growth inhibition in a long term (11 days IC50)
# Description: Pfeiffer cells in exponential growth phase were seeded in a 24-well plate with a cell density of 1*10E5 cells/mL. Cells were treated on the same day with the compounds at different concentrations. At day 4 and day 7 of compound treatment, fresh media and compounds were changed. After treated with the compounds for 11 days, cell viability was measured using CellTiter-Glo reagent (Promega Corporation). The data was analyzed using GraphPad Prism 5.0 software and GI50 values were obtained.
# PRC2 enzyme = PRC2 enzyme (Homo sapiens (Human), UniProt O75530); test: PRC2 enzyme activity, TR-FRET method; assay type: biochemical
# Description: The TR-FRET method was used to measure the PRC2 enzyme activity. First, the enzyme was mixed with compounds at different concentrations and incubated for 30 min at room temperature. The biotin-labeled histone H3 peptide substrate and the cofactor S-adenosylmethionine (SAM) were added to initiate the enzymatic reaction. After reaction was performed at room temperature for 4 hour, Acceptor and Donor were added and incubated for half an hour. The multifunctional microplate reader EnVision (Perkin Elmer Inc.) was used to detect the fluorescence signal. Data were analyzed using GraphPad Prism 5.0 software, and IC50 values were obtained.
# [1] = Liver microsomal stability (human); assay type: in vitro ADME
# Description: (§1) 1. JANUS and temperature control device was turned on. After being initialized, the pipes were flushed until there was no air bubble in the pipes.
# (§2) 2. Preparation of buffers used for the experiment
# (§3) Preparation of Tris pH 7.4 buffer (0.1 M): 12.12 g of Tris was dissolved in 1000 mL of H2O, the resulting solution was adjusted to pH 7.4 with 2N HCl, aliquoted at 50 mL per tube, and stored at −20° C.
# (§4) Preparation of H2O/0.1% BSA buffer: 200 μL of 25% BSA was added to 50 mL of H2O.
# (§5) Preparation of VIVID stock solution: 1 mg of VIVID was dissolved in 1 mL of acetonitrile, aliquoted at 50 μL per tube, and stored at −20° C.
# (§6) Preparation of MgCl2 solution (100 mM): 1.016 g of MgCl2 was dissolved in 50 mL Tris pH 7.4 buffer, and aliquoted at 1 mL per tube, and stored at −20° C.
# (§7) Preparation of NADPH solution (10 mM): 355 mg of NADPH was dissolved in 42.6 mL of Tris pH 7.4 buffer, aliquoted at 1.8 mL per tube, and stored at −20° C.
# (§8) Preparation of Blank control: 7.937 mL of Tris, 163 μL of RLM, 450 μL of MgCl2 solution, 450 μL of NADPH solution and 9 mL of methanol were mixed uniformly, aliquoted at 1 mL per tube, and stored at −20° C.
# (§9) 3. Preparation of Compound Working Solution
# (§10) Dilution step 1:10 μL of compound stock solution was added to 90 μL of DMSO=1 mM stock solution.
# (§11) Dilution step 2: 2 μL of 1 mM stock solution was added to 1 mL of H2O/0.1%6 BSA buffer=[…] working solution.
# (§12) Dilution step 3: 245 μL of the working solution was added to a 96-well compound plate and added with 5 μL of VIVID stock solution.
# (§13) The 96-well compound plate was shaken on a shaker for 5 min.
# (§14) 4. The STM in the JANUS in the computer was open to run the EXCEL file, and the JANUS program was operated and run by following the instructions in the EXCEL file.
# (§15) 5. After the JANUS program was finished, acetonitrile/water 50:50 (V/V) was added to column 20 of the 384-well black plate, and blank control was added to column 21 of the 384-well black plate.
# (§16) 6. the plate (420 nm-465 nm) was read on a microplate reader to determine the VIVID fluorescence intensity.
# (§17) 7. After the plate was sealed, shaken and centrifuged, the sample plate was subjected to the LC/MS instrument for sample analysis.
# (§18) A profile of the logarithmic value of the remaining rate of the drug in the incubation system versus the incubation time was plotted, and the slope k was obtained by linear regression. The intrinsic clearance rate in vivo (Clint, mL/min/g) value, the clearance rate in vivo (Cl, mL)/min), liver clearance (Clhep, mL/min) and metabolic bioavailability (% MF) were predicted according to the following equations: […]
# [2] = Liver microsomal stability (rat); assay type: in vitro ADME
# Description: as §1, §2, §3, §4, §5, §6, §7, §8, §9, §10, §11, §12, §13, §14, §15, §16, §17, §18
# [3] = Liver microsomal stability (mouse); assay type: in vitro ADME
# Chain of PRC2 enzyme (O75530 whole entry): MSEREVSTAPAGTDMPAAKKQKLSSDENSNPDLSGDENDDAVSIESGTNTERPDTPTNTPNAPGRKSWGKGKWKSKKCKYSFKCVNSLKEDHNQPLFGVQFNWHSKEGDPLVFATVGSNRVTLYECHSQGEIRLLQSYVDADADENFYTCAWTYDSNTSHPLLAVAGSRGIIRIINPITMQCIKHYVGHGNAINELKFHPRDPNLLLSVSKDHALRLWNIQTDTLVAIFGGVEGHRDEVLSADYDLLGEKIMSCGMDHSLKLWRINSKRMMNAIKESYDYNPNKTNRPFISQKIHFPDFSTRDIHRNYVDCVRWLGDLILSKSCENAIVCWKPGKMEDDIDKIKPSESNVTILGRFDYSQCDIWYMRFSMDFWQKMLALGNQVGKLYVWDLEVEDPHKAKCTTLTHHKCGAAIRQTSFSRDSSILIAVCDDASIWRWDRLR
# Chain of PRC2 enzyme (Q15910 whole entry partner): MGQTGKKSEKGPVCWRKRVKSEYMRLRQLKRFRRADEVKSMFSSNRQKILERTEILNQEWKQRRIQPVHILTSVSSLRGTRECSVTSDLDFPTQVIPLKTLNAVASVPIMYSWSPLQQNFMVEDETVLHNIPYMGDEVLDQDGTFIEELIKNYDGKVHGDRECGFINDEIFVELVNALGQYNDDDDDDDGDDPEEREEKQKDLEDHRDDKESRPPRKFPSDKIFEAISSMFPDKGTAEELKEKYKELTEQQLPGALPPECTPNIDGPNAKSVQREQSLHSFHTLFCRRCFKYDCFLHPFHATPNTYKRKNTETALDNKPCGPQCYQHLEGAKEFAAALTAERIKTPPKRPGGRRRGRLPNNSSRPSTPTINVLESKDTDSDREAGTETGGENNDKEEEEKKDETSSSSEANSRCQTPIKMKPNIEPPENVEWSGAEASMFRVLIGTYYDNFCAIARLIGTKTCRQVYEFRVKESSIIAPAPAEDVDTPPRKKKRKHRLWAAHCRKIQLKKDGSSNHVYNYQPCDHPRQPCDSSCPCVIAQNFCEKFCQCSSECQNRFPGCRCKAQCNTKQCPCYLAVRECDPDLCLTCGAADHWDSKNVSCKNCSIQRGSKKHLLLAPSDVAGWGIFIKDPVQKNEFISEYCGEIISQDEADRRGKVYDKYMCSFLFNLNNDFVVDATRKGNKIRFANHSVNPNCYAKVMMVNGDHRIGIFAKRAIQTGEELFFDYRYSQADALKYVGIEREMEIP
# Chain of PRC2 enzyme (Q15022 whole entry partner): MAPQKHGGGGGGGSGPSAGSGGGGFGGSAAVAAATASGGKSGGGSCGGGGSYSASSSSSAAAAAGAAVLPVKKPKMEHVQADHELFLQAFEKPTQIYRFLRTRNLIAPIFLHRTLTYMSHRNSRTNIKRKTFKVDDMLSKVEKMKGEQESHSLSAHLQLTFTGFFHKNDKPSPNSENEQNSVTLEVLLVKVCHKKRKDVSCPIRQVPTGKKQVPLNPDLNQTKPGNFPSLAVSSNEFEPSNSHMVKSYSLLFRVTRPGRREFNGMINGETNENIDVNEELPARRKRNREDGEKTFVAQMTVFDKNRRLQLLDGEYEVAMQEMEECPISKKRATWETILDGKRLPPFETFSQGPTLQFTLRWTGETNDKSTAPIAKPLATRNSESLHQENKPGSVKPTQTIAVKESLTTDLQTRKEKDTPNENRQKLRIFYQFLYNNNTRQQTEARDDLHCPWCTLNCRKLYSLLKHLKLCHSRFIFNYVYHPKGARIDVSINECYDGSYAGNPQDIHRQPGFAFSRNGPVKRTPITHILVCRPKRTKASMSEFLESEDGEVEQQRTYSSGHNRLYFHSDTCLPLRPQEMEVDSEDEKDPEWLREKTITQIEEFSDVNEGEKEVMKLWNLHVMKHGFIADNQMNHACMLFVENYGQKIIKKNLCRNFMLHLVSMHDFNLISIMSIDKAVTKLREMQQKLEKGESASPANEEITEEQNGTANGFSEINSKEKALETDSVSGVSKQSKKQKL
IC50 (Pfeiffer cells; 11 days),IC50 (PRC2 enzyme),SMILES,further results
83 nM,–,CC(C)(C)OC(=O)N1CC=C(c2cnc(NCc3ccco3)n3cnnc23)CC1 [E-Y6],–
320 nM,–,CC(C)(C)OC(=O)NC1CC=C(c2cnc(NCc3ccco3)n3cnnc23)CC1 (stereo not drawn) [E-Y9],–
4.8 nM,17.7 nM,O=C(c1ccccc1)N1CC=C(c2cnc(NCc3c(F)ccc4c3CCO4)n3cnnc23)CC1 [E-Y16],–
2.7 nM,–,CCNC(=O)N1CC=C(c2cnc(NCc3c(F)ccc4c3CCO4)n3cnnc23)CC1 [E-Y17],–
2.7 nM,21 nM,CC(C)(C)NC(=O)N1CC=C(c2cnc(NCc3c(F)ccc4c3CCO4)n3cnnc23)CC1 [E-Y18],–
158 nM,166 nM,CC(=O)N1CC=C(c2cnc(NCc3ccco3)n3cnnc23)CC1 [E-Y20],–
185 nM,351 nM,O=C(c1ccccc1)N1CC=C(c2cnc(NCc3ccco3)n3cnnc23)CC1 [E-Y21],–
107 nM,350 nM,Cc1ccc(S(=O)(=O)N2CC=C(c3cnc(NCc4ccco4)n4cnnc34)CC2)cc1 [E-Y23],–
289 nM,543 nM,O=C(CN1CCOCC1)N1CC=C(c2cnc(NCc3ccco3)n3cnnc23)CC1 [E-Y36],–
5.4 nM,16.1 nM,O=C(CN1CCOCC1)N1CC=C(c2cnc(NCc3c(F)ccc4c3CCO4)n3cnnc23)CC1 [E-Y40],"Clearance rate in vivo Clint In Vivo Extpl ([1]; human liver microsomes): 2522 mL/min; Intrinsic clearance rate in vivo Clint In Vitro ([1]; human liver microsomes): 33.0 mL/min/gprot; Liver clearance rate Clint Hep In Vivo Extpl ([1]; human liver microsomes): 941 mL/min; half-life ([1]; human, liver microsomes, pH 7.4, human liver microsomes, read-out: Half life T-half): 63.7 min; bioavailability ([1]; human, liver microsomes, pH 7.4, human liver microsomes, read-out: Metabolic bioavailability MF %): 37.3%; Clearance rate in vivo Clint In Vivo Extpl ([2]; rat liver microsomes): 59.6 mL/min; Intrinsic clearance rate in vivo Clint In Vitro ([2]; rat liver microsomes): 133 mL/min/gprot; Liver clearance rate Clint Hep In Vivo Extpl ([2]; rat liver microsomes): 15.0 mL/min; Metabolic bioavailability MF % ([2]; rat liver microsomes): 25.1%; half-life ([2]; rat, liver microsomes, pH 7.4, rat liver microsomes, read-out: Half life T-half): 15.9 min; Clearance rate in vivo Clint In Vivo Extpl ([3]; mouse liver microsomes): 23.2 mL/min; Intrinsic clearance rate in vivo Clint In Vitro ([3]; mouse liver microsomes): 344 mL/min/gprot; Liver clearance rate Clint Hep In Vivo Extpl ([3]; mouse liver microsomes): 2.66 mL/min; Metabolic bioavailability MF % ([3]; mouse liver microsomes): 11.4%; half-life ([3]; mouse, liver microsomes, pH 7.4, mouse liver microsomes, read-out: Half life T-half): 6.11 min"
4.5 nM,< 20 nM,O=C(c1cnco1)N1CC=C(c2cnc(NCc3c(F)ccc4c3CCO4)n3cnnc23)CC1 [E-Y41],–

SMILES,IC50 (Pfeiffer cells; 11 days),IC50 (PRC2 enzyme),further results
CCNC(=S)N1CC=C(c2cnc(NCc3c(F)ccc4c3CCO4)n3cnnc23)CC1 [E-Y19],–,9.3 nM,IC50 (Pfeiffer cells): 3 nM
